Measurements reported in patent US20260240976A1, “T[…] VACCINES BASED ON VALIDATED TARGET EPITOPES” (Deutsches Krebsforschungszentrum Stiftung des öffentlichen …, priority 2023, published 2026).

Test system: short-term antigen-specific T cell lines generated from PBMCs
Assay: Interferon-γ ELISpot assay on short-term antigen-specific T cell lines; further: key: +: ELISPOT: Immungenicity of the peptide shown by IFN-gamma ELISPOT analysis; +*: *highlights data from published resources; *highlights data from published resources
Assay type: cell-based, human

Substance	ELISpot: Immungenicity of the peptide shown by IFN-gamma ELISPOT analysis (HLA restriction B15)	also measured
121 (AVCDKCLKF; Human papillomavirus 16) [compound 121]	+	
122 (CLKFYSKISEY; Human papillomavirus 16) [compound 122]	+	
123 (FYSKISEY; Human papillomavirus 16) [compound 123]	+	
124 (YSKISEYRHY; Human papillomavirus 16) [compound 124]	+	
125 (SKISEYRHY; Human papillomavirus 16) [compound 125]	+	
126 (SEYRHYCY; Human papillomavirus 16) [compound 126]	+	
127 (QQYNKPLCDL; Human papillomavirus 16) [compound 127]	+	
128 (CQKPLCPEE; Human papillomavirus 16) [compound 128]	+	
129 (KQRHLDKKQRF; Human papillomavirus 16) [compound 129]	+	
130 (KQRFHNIRGRW; Human papillomavirus 16) [compound 130]	+	
131 (GQAEPDRAH; Human papillomavirus 16) [compound 131]	+	
132 (TTDLYCYEQL; Human papillomavirus 16) [compound 132]		ELISpot: Immungenicity of the peptide shown by IFN-gamma ELISPOT analysis (HLA restriction A01): +
133 (SEYRHYCY; Human papillomavirus 16) [compound 133]		ELISpot: Immungenicity of the peptide shown by IFN-gamma ELISPOT analysis (HLA restriction A01): +
134 (IHEIILECVY; Human papillomavirus 16) [compound 134]		ELISpot: Immungenicity of the peptide shown by IFN-gamma ELISPOT analysis (HLA restriction A01): +
136 (GTTLEQQYNK; Human papillomavirus 16) [compound 136]		ELISpot: Immungenicity of the peptide shown by IFN-gamma ELISPOT analysis (HLA restriction A03): +
138 (HYNIVTFC; Human papillomavirus 16) [compound 138]		ELISpot: Immungenicity of the peptide shown by IFN-gamma ELISPOT analysis (HLA restriction A24): +
142 (CPDEKQRHL; Human papillomavirus 16) [compound 142]		ELISpot: Immungenicity of the peptide shown by IFN-gamma ELISPOT analysis (HLA restriction B07): +
143 (LPQLCTELQT; Human papillomavirus 16) [compound 143]		ELISpot: Immungenicity of the peptide shown by IFN-gamma ELISPOT analysis (HLA restriction B07): +
145 (KISEYRHY; Human papillomavirus 16) [compound 145]	+	
146 (RGRWTGRCM; Human papillomavirus 16) [compound 146]	+	
147 (AGQAEPDRAHY; Human papillomavirus 16) [compound 147]	+	
148 (FYSKISEY; Human papillomavirus 16) [compound 148]	+	
